From patent publication US11179348B2, “Combination comprising pterostilbene for the treatment of cancer” (FUNDACIÓN UNIVERSIDAD CATÓLICA DE VALENCIA SAN VICENTE …, priority 2015, dated 2021)
Marks after values point to notes of the source that are not given here.

Assays:
[1] = system: HT-29 human colon cancer; conditions: 20 μM Pter, 24 h, in vitro; cited from earlier work
[2] = system: SK-OV-3 epithelial ovarian carcinoma; test: In vivo growth of SK-OV-3 ovarian cancer xenografts; design: species or system human; conditions: SK-OV-3, day 49
[3] = system: A2058 melanoma cells; test: Nrf2- and redox state-related enzyme activities and metabolites in A2058 cells growing in vivo; design: species or system human; conditions: A2058, in vivo +Pter, day 35
Protocol: Transfection of the Red Fluorescence Protein.
First the pDsRed-2 vector (Clontech Laboratories Inc., Palo Alto, Calif.) was used, as previously described for A375 melanoma cells (Mena, S. et al. J Transl Med 10, 8 (2012)), to engineer A2058, MeWo and MelJuso melanoma clones stably expressing the RFP. Isolation of A2058-RFP, MeWo-RFP or MelJuso-RFP cells from the growing xenografts was performed by laser microdissection and high-performance cell sorting as previously described in detail (Mena, S. et al. J Transl Med 10, 8 (2012)).
To measure enzyme activity, isolated tumor cells were homogenized in 0.1 M phosphate buffer (pH 7.2) at 4° C. GCL and GSS activities were measured as described previously (Obrador, E. et al. Hepatology 35, 74-81 (2002)). GPX (selenium dependent) activity was measured as described by Flohé and Gunzler (Flohe, L. & Gunzler, W. A. Methods Enzymol 105, 114-121 (1984)) using H2O2 as a substrate. GSR activity was determined as described by Akerboom and Sies (Akerboom, T. P. et al, Bull Eur Physiopathol Respir 17 Suppl, 221-227 (1981)). GGT activity was measured as described previously (Obrador, E. et al. Hepatology 35, 74-81 (2002)). GST activity was measured using an assay kit from Sigma. TXNRD activity, defined by the concentration of sodium-lipoate (disulfide) reduced to dehydrolipoate (dithiol) per milligram protein, was measured as previously described (Javvadi, P. et al. Cancer Res 70, 1941-1950 (2010)). SOD activity was measured as described by Flohé and Otting (Flohe, L. & Otting, F. Methods Enzymol 105, 93-104 (1984).) using 2 mM cyanide in the assay medium to distinguish mangano-type enzyme (SOD2) from the cuprozinc type (SOD1). CAT activity was analyzed as described by Aebi (Aebi, H. Methods Enzymol 105, 121-126 (1984)). NOX activity was measured by chemiluminescence following the methodology of Wind et al. (Wind, S. et al. Comparative pharmacology of chemically distinct NADPH oxidase inhibitors. Br J Pharmacol 161, 885-898 (2010)). Protein concentration was determined with the Pierce BCA protein assay (Fisher Scientific, Waltham, Mass.).
Measurement of H2O2 and O2^⋅−.
Quantitative measurement of H2O2 and flow cytometry determination of O2^⋅− generation were performed as previously described (Benlloch, M. et al. J Biol Chem 281, 69-79 (2006)).
GSH, GSSG, NADP^+ and NADPH Determination.
GSH and GSSG were determined, following procedures previously described (Obrador, E. et al. PLoS One 9, e96466 (2014)), by LC/MS using the same equipment described above for pterostilbene determination. Cell processing was performed according to published methodology, where rapid N-ethylmaleimide derivatization was used to prevent GSH auto-oxidation (Asensi, M. et al. Anal Biochem 217, 323-328 (1994)). NADP^+ and NADPH were quantitated using an assay kit from Sigma (St. Louis, Mo.).

[4] = system: HepG2 hepatocellular carcinoma; test: In vivo growth of HepG2 liver cancer xenografts; design: species or system human; conditions: HepG2, day 35

## COc1cc(/C=C/c2ccc(O)cc2)cc(OC)c1 [Pter, trans-3,5-dimethoxy-4′-hydroxystilbene]
[1]
  decrease in tumor cell viability: ~10%
[2]
  Tumor vol.: 214 ± 83* mm^3
[3]
  CAT: 1.7 ± 0.3 mU/10^6 cells
  G6PDH: 305 ± 78 mU/10^6 cells
  GCL: 58 ± 17 mU/10^6 cells
  GGT: 19.6 ± 2.7 mU/10^6 cells
  GPX: 3.9 ± 1.1 mU/10^6 cells
  GSH: 10.5 ± 2.1 nmol/10^6 cells
  GSH/GSSG: 35 ± 5
  GSR: 6.1 ± 1.6 mU/10^6 cells
  GSS: 8.5 ± 2.0 mU/10^6 cells
  GSSG: 0.3 ± 0.1 nmol/10^6 cells
  GST: 7.5 ± 1.3 mU/10^6 cells
  H2O2: 0.7 ± 0.2 nmol/10^6 cells × min
  IDH: 1.2 ± 0.4 U/10^6 cells
  ME: 43 ± 12 mU/10^6 cells
  NADPH: 0.06 ± 0.02 nmol/mg prot
  NADPH/NADP^+: 1.2 ± 0.3
  NADP^+: 0.05 ± 0.01 nmol/mg prot
  NOX: 177 ± 4.5 R.L.U./10^6 cells
  O2^−: 3.9 ± 0.6 ΔFL1, a.u.
  SOD1: 0.6 ± 0.2 U/10^6 cells
  SOD2: 0.1 ± 0.05 U/10^6 cells
  TXN: 0.5 ± 0.1 μg/10^6 cells
  TXNRD: 0.7 ± 0.2 U/10^6 cells
[4]
  Tumor vol.: 375 ± 106* mm^3
